One compound from patent US20170252446A1, “USE OF MESO- AND NANOPOROUS MATERIAL FOR SURFACTANT TRAPPING IN NANOPARTICLE SUSPENSIONS” (Therakine BioDelivery GmbH, priority 2014, published 2017) can be followed below.

The nature of this data set: Surface tension of SDS solution after repeated additions of mesoporous MCM particles (surfactant trapping). Type of data set: physicochemical. To be noted: pure SDS solution (8.2 mM), before addition of MCM particles. How it is done:
Anionic mesoporous nanoparticles (MCM) were suspended into water, wetted, and separated from free water by centrifugation. Pure sodium dodecyl sulphate (SDS) solution (8.2 mM) provides a starting surface tension of about 36.5 mN/m. Per 1 g of MCM particles, 15 mL of SDS is added, resulting in an increase of the surface tension to 45 mN/m. Second, third, and fourth additions result in 57.5 mN/m, 66.8 mN/m, and 70.5 mN/m, respectively. After four mesoporous particle additions, the pure water value is already approached. This is illustrated in FIG. 1. Such non-limiting methods have been unexpectedly discovered to be useful for reliably and predictably preparing a stable nanoparticle suspension of a poorly soluble active ingredient. Cationic mesoporous nanoparticles (MCM) are suspended in water, wetted, and separated from free water by centrifugation. Pure sodium dodecyl sulphate (SDS) solution (8.2 mM) provides a starting surface tension of about 36.5 mN/m. Per 1 g of MCM particles, 15 mL of SDS is added, resulting in an increase of the surface tension to 40 mN/m. Second and third additions result in 54.0 mN/m and 70.0 mN/m, respectively. After three mesoporous particle additions, the pure water value is already approached. This is illustrated in FIG. 2. […]

On to `CCCCCCCCCCCCOS(=O)(=O)[O-].[Na+]` [sodium dodecyl sulphate (SDS), sodium dodecyl sulphate], for which the starting surface tension result was “about 36.5 mN/m”.
